Article PMC6429459, “The HslV Protease from Leishmania major and Its Activation by C-terminal HslU Peptides” (International Journal of Molecular Sciences, 2019)
Square brackets hold non-standard residues; d marks the D form. Peptide text beside a SMILES is read from it. * marks the point of attachment. AMC = Cc1cc(=O)oc2cc(N*)ccc12; Cbz = O=C(OCc1ccccc1)*; AEEA = NCCOCCOCC(=O)O

Key:
[1] = Solubility in aqueous assay solutions (observation); details: aqueous assay conditions, peptide concentrations in the millimolar range; in words
[2] = system: LmHslV; assay: Degradation of fluorogenic substrates by LmC12-U2-activated LmHslV; format: biochemical, Leishmania major; details: LmHslV 75.2 nM, 37 °C, substrate 100 μM, activating peptide LmC12-U2 500 μM; Figure 2; in words
Method: Activity assay: The peptidase activity of recombinant LmHslV was assessed by measuring the fluorescence of AMC released after hydrolysis of the fluorogenic substrates Z-GGL-AMC or JMV4482 (Z-EVNL-AMC), 100 µM. LmHslV activation was obtained by addition of activating peptides (see type and concentration in the figure legends). Activity buffer: 25 mM Tris-HCl pH 8.0, 1 mM DTT, 0.5 mM EDTA and 5 mM MgCl2. Most of the experiments were performed in a final volume of 50 µL in black 96-well microplates (Fisher Scientific, Illkirch, France. Fluorescence was measured using a spectrofluorimeter (BIO-TEK Instrument, Inc., Winooski, VT, USA): filters 360/340 for excitation and 460/440 for emission.
Figure 2 Degradation of different fluorogenic substrates by LmHslV. LmHslV (75.2 nM) was incubated at 37 °C with different fluorogenic substrates (100 μM) in the presence of the activating peptide LmC12-U2 (500 μM). The fluorescence of the free AMC group, proportional to the activity of the sample, was measured at 2 min. intervals. With each substrate, no activity was measured in the absence of activating peptide: for the sake of clarity, only the negative control values obtained with the substrate ZGGL-AMC are shown.

[3] = biological target: HslV from E. coli (EcHslV) (Escherichia coli, UniProt P0A7B8); details: compared with Z-GGL-AMC; in words
Sequence of HslV from E. coli (EcHslV) (P0A7B8 2-176): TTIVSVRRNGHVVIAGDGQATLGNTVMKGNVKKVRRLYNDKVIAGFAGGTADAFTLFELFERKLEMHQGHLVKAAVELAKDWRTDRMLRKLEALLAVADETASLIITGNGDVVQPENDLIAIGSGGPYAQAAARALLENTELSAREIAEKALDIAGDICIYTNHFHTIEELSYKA
Excerpt: A further improvement to our assays was the development of a novel fluorogenic peptide substrate, which was more convenient to use than Z-GGL-AMC. Indeed, although the substrate Z-GGL-AMC mostly used in the literature for the studies of HslV has proven useful, its use is limited by its poor solubility in aqueous solutions [6, 36]. In view of finding alternative substrates for LmHslV, we tested a variety of possible fluorogenic substrates (commercial or home-made) including Suc-LLVY-AMC, a classical substrate used for the eukaryotic proteasome, in the presence of the reference activator peptide LmC12-U2.

Compound | Solubility of activating peptide [1] | Degradation of fluorogenic substrate by activated LmHslV [2] | Degradation of fluorogenic substrate by EcHslV [3]
CC[C@H](C)[C@H](NC(=O)[C@H](Cc1ccccc1)NC(=O)[C@H](CCCCN)NC(=O)[C@H](CCCCN)NC(=O)[C@@H](NC(=O)[C@H](CC(=O)O)NC(=O)[C@@H](NC(=O)[C@H](CCCCN)NC(=O)[C@H](CCCCN)NC(=O)[C@@H](NC(=O)[C@H](CCSC)NC(=O)COCCOCCNC(=O)[C@H](N)CCCNC(=N)N)C(C)C)C(C)C)[C@@H](C)CC)C(=O)N[C@@H](CC(C)C)C(=O)O [Compound 8] (H-[dR][AEEA]MVKKVDIKKFIL-OH) | significantly more soluble than C8-U1 |  | 
Cbz-EVNL-{AMC} (SMILES Cc1cc(=O)oc2cc(NC(=O)[C@H](CC(C)C)NC(=O)[C@H](CC(N)=O)NC(=O)[C@@H](NC(=O)[C@H](CCC(=O)O)NC(=O)OCc3ccccc3)C(C)C)ccc12) [Z-EVNL-AMC] |  | more efficiently degraded by LmHslV than Z-GGL-AMC and Suc-LLVY-AMC | more efficiently degraded by HslV from E. coli (EcHslV) than Z-GGL-AMC
H-VNLAKYLL-OH [Compound 3] | not soluble enough for reliable results |  | 
